From article PMC12420824, “Discovery of a selective alpha-kinase 1 inhibitor for the rare genetic disease ROSAH syndrome” (Nature Communications, 2025)

Key:
Settings in all cases: read-out: % Enzyme Activity (relative to DMSO control), 10 uM
AKT1 = AKT1 (Homo sapiens, UniProt P31749); test: HotSpot kinase assay
FRK/PTK5 = FRK/PTK5 (Homo sapiens, UniProt P42685); test: HotSpot kinase assay
Description: (§1) Additionally, a 10-dose dilution series of staurosporine and other enzyme-appropriate compounds were included as positive control inhibitors.

PKD2/PRKD2 = PKD2/PRKD2 (Homo sapiens, UniProt Q9BZL6); test: HotSpot kinase assay
Description: as §1

NEK11 = NEK11 (Homo sapiens, UniProt Q8NG66); test: HotSpot kinase assay
Description: as §1

EPHA6 = EPHA6 (Homo sapiens, UniProt Q9UF33); test: HotSpot kinase assay
RSK2 = RSK2 (Homo sapiens, UniProt P51812); test: HotSpot kinase assay
Description: as §1

AKT3 = AKT3 (Homo sapiens, UniProt Q9Y243); test: HotSpot kinase assay
CDK3/cyclin E2 = CDK3/cyclin E2 (Homo sapiens, UniProt Q00526); test: HotSpot kinase assay
CDK4/cyclin D3 = CDK4/cyclin D3 (Homo sapiens, UniProt P11802); test: HotSpot kinase assay
Description: as §1

TRKB = TRKB (Homo sapiens, UniProt Q16620); test: HotSpot kinase assay
TSSK2 = TSSK2 (Homo sapiens, UniProt Q96PF2); test: HotSpot kinase assay
Description: as §1

FAK/PTK2 = FAK/PTK2 (Homo sapiens, UniProt Q05397); test: HotSpot kinase assay
Description: as §1

GRK4 = GRK4 (Homo sapiens, UniProt P32298); test: HotSpot kinase assay
Description: as §1

AMPK(A2/B2/G1) = AMPK(A2/B2/G1) (Homo sapiens, UniProt P54646); test: HotSpot kinase assay
AMPK(A2/B2/G1), sequence (P54646 whole entry): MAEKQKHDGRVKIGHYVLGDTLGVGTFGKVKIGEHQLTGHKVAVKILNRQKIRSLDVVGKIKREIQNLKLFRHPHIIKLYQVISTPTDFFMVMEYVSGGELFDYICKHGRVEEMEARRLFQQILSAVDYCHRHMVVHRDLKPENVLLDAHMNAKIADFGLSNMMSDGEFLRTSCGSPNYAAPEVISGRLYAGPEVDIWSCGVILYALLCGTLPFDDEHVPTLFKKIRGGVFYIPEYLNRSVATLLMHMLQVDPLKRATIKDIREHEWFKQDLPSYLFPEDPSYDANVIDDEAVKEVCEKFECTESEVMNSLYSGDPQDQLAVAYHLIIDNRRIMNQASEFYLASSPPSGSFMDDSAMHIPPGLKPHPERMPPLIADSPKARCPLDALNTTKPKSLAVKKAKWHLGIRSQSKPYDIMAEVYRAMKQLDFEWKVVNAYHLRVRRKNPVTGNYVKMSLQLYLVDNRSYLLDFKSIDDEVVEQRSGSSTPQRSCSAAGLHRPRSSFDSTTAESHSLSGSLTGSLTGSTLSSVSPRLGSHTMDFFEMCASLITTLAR
AMPK(A2/B2/G1), sequence (O43741 whole entry partner): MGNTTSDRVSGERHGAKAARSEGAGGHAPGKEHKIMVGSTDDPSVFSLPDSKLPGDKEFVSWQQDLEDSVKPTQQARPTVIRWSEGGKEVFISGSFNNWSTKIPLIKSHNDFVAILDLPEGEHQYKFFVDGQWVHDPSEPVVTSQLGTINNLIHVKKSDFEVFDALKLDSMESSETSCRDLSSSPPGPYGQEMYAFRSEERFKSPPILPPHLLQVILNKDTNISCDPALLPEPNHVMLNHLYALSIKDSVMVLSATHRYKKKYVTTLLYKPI
AMPK(A2/B2/G1), sequence (P54619 whole entry partner): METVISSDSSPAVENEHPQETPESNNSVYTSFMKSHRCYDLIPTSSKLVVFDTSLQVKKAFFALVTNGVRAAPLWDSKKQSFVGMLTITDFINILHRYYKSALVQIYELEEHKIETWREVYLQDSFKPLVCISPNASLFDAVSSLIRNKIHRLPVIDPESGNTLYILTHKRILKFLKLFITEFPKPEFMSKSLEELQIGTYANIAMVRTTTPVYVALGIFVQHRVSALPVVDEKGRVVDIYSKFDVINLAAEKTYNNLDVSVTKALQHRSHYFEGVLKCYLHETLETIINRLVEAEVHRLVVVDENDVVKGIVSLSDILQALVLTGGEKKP

NEK9 = NEK9 (Homo sapiens, UniProt Q8TD19); test: HotSpot kinase assay
CDK2/cyclin O = CDK2/cyclin O (Homo sapiens, UniProt P24941); test: HotSpot kinase assay
MARK3 = MARK3 (Homo sapiens, UniProt P27448); test: HotSpot kinase assay
MARK3, sequence (P27448 whole entry): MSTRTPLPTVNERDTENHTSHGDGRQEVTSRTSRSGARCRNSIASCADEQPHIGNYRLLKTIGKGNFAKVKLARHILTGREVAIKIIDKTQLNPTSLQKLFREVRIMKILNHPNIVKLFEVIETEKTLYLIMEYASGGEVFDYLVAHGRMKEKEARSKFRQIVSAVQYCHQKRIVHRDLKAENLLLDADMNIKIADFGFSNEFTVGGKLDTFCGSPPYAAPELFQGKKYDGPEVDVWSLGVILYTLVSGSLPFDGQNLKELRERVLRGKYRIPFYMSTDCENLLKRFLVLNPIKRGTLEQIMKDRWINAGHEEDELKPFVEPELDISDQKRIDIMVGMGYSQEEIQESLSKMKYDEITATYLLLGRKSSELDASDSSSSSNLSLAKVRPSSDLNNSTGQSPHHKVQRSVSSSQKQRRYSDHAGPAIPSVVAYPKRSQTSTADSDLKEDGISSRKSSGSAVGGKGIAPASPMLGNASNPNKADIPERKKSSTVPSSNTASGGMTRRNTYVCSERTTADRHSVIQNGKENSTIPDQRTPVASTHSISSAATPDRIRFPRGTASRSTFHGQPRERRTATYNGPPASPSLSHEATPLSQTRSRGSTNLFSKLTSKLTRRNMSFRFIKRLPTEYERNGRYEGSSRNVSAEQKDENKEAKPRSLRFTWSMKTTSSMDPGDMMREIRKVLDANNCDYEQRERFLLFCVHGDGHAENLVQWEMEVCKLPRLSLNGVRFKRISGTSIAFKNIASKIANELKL
Description: as §1

FGR = FGR (Homo sapiens, UniProt P09769); test: HotSpot kinase assay
Description: as §1

PKCd = PKCd (Homo sapiens, UniProt Q05655); test: HotSpot kinase assay
PKCd, sequence (Q05655 whole entry): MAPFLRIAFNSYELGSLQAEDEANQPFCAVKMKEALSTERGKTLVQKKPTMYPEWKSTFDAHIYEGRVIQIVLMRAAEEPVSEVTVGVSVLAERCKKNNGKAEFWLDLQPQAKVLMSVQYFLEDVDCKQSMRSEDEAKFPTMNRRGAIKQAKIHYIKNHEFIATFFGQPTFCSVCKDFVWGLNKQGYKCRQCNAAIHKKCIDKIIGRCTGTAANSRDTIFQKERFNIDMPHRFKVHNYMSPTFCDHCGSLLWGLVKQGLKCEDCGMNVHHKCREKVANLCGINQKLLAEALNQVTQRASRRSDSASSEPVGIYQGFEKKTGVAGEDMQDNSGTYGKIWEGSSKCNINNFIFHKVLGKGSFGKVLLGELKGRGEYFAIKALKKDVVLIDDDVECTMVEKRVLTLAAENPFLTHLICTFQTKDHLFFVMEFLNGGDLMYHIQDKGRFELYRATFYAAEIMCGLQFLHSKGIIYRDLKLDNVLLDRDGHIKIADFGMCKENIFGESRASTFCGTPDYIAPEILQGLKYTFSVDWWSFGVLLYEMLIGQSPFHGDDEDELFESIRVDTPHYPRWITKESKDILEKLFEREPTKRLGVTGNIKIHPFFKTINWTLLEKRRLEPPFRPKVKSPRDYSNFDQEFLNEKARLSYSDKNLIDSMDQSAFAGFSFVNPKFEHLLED

CDK2/cyclin A = CDK2/cyclin A (Homo sapiens, UniProt P24941); test: HotSpot kinase assay
Description: as §1

JAK2 = JAK2 (Homo sapiens, UniProt O60674); test: HotSpot kinase assay
JAK2, sequence (O60674 whole entry): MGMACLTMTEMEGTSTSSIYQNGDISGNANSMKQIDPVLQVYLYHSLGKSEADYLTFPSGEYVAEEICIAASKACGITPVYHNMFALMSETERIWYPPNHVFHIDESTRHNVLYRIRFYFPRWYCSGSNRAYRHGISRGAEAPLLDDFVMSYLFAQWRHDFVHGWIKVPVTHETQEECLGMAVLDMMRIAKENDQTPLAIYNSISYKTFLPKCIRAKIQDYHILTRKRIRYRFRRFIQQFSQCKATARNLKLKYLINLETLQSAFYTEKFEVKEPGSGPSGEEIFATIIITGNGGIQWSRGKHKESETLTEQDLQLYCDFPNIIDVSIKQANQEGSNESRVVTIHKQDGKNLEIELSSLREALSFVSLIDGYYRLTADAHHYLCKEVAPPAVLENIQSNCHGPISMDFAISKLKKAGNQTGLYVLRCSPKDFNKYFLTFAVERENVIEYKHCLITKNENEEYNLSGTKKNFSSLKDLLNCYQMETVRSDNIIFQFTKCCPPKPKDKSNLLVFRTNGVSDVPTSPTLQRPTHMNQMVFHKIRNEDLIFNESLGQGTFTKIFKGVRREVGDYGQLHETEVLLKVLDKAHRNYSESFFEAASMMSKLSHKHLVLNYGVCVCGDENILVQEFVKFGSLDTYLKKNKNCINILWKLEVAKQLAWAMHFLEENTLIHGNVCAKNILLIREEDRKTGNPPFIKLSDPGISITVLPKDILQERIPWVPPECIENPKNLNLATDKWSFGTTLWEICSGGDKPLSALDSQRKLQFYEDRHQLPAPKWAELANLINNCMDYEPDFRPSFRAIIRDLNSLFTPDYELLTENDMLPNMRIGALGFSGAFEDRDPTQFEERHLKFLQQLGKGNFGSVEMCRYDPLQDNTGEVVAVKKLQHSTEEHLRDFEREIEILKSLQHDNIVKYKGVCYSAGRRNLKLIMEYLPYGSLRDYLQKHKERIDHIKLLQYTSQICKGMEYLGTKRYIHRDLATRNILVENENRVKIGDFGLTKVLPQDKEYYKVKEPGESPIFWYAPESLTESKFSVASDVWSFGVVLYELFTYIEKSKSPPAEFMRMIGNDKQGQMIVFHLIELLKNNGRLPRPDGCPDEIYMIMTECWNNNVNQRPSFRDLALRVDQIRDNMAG

FER = FER (Homo sapiens, UniProt P16591); test: HotSpot kinase assay
EIF2AK4 = EIF2AK4 (Homo sapiens, UniProt Q9P2K8); test: HotSpot kinase assay
Description: as §1

CLK4 = CLK4 (Homo sapiens, UniProt Q9HAZ1); test: HotSpot kinase assay
Description: as §1

TRKA = TRKA (Homo sapiens, UniProt P04629); test: HotSpot kinase assay
Description: as §1

PIM1 = PIM1 (Homo sapiens, UniProt P11309); test: HotSpot kinase assay
Description: as §1

EGFR = EGFR (Homo sapiens, UniProt P00533); test: HotSpot kinase assay
Description: as §1

SGK3/SGKL = SGK3/SGKL (Homo sapiens, UniProt Q96BR1); test: HotSpot kinase assay
Description: as §1

CK1epsilon = CK1epsilon (Homo sapiens, UniProt P49674); test: HotSpot kinase assay
Description: as §1

CDK7/cyclin H = CDK7/cyclin H (Homo sapiens, UniProt P50613); test: HotSpot kinase assay
Description: as §1

CK1G3 = CK1G3 (Homo sapiens, UniProt Q9Y6M4); test: HotSpot kinase assay
Description: as §1

SIK3 = SIK3 (Homo sapiens, UniProt Q9Y2K2); test: HotSpot kinase assay
SIK3, sequence (Q9Y2K2 whole entry): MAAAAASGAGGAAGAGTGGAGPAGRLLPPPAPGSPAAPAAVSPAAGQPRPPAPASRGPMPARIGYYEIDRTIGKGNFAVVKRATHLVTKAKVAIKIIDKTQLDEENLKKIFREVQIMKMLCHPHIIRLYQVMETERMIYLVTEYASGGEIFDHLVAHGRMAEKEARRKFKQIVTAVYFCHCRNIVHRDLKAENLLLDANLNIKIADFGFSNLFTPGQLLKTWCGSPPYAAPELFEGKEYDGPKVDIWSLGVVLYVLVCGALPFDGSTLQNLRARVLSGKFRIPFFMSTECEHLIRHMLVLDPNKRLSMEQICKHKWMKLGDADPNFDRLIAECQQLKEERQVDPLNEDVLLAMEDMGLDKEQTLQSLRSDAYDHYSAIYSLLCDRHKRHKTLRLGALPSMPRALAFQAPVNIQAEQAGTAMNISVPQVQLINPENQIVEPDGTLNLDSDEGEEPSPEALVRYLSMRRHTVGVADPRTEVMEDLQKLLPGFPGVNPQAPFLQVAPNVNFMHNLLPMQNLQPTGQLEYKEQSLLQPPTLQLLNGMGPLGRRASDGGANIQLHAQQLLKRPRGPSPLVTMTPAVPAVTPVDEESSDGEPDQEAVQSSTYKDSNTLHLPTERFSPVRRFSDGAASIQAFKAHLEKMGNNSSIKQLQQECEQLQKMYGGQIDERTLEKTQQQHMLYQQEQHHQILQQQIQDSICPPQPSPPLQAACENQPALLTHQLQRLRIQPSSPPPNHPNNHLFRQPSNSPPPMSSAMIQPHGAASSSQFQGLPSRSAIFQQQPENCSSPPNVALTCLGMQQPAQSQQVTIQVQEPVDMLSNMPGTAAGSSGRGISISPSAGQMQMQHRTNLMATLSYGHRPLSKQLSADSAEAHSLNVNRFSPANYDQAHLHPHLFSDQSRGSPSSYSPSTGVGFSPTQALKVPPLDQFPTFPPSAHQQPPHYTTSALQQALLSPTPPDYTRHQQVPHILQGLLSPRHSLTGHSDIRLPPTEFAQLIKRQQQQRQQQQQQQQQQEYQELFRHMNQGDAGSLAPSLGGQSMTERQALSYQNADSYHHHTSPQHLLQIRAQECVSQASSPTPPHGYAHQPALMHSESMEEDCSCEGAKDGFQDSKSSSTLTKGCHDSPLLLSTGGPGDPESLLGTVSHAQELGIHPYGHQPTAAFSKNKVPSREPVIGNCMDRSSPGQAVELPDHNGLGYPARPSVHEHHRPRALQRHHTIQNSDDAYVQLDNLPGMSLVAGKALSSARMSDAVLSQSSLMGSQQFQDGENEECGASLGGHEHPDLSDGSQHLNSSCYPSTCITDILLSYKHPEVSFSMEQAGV
Description: as §1

ERK2/MAPK1 = ERK2/MAPK1 (Homo sapiens, UniProt P28482); test: HotSpot kinase assay
LRRK2 = LRRK2 (Homo sapiens, UniProt Q5S007); test: HotSpot kinase assay
Description: as §1

AMPK(A1/B1/G3) = AMPK(A1/B1/G3) (Homo sapiens, UniProt Q13131); test: HotSpot kinase assay
Description: as §1

MEKK6 = MEKK6 (Homo sapiens, UniProt O95382); test: HotSpot kinase assay
Description: as §1

ALK5/TGFBR1 = ALK5/TGFBR1 (Homo sapiens, UniProt P36897); test: HotSpot kinase assay
Description: as §1

BTK = BTK (Homo sapiens, UniProt Q06187); test: HotSpot kinase assay
Description: as §1

STK16 = STK16 (Homo sapiens, UniProt O75716); test: biochemical
Description: as §1

mTOR/FRAP1 = mTOR/FRAP1 (Homo sapiens, UniProt P42345); test: HotSpot kinase assay
Description: as §1

Q: For `C#C[C@@](C)(c1ccc(Cl)cc1)c1csc(NC(=O)c2c(F)cc(N3CCNCC3)cc2F)n1` (stereo in doubt) [DF-003], which remaining activity at 10 µM (AKT1) is on record?
A: Its remaining activity at 10 µM is 81.4%.

Q: And the remaining activity at 10 µM (FRK/PTK5)?
A: Its remaining activity at 10 µM is 101%.

Q: And the remaining activity at 10 µM (PKD2/PRKD2)?
A: The remaining activity at 10 µM was 85.9%.

Q: What about the remaining activity at 10 µM (NEK11) of the same molecule?
A: The remaining activity at 10 µM was 75.3%.

Q: What about the remaining activity at 10 µM (EPHA6) of the same molecule?
A: Its remaining activity at 10 µM is 79.3%.

Q: What about the remaining activity at 10 µM (RSK2) of the same molecule?
A: The remaining activity at 10 µM was 104%.

Q: And the remaining activity at 10 µM (AKT3)?
A: Its remaining activity at 10 µM is 83.1%.

Q: And the remaining activity at 10 µM (CDK3/cyclin E2)?
A: Its remaining activity at 10 µM is 103%.

Q: What about the remaining activity at 10 µM (CDK4/cyclin D3) of the same molecule?
A: The remaining activity at 10 µM was 91.1%.

Q: And the remaining activity at 10 µM (TRKB)?
A: Its remaining activity at 10 µM is 74.4%.

Q: And the remaining activity at 10 µM (TSSK2)?
A: Its remaining activity at 10 µM is 101%.

Q: What about the remaining activity at 10 µM (FAK/PTK2) of the same molecule?
A: Its remaining activity at 10 µM is 128%.

Q: What about the remaining activity at 10 µM (GRK4) of the same molecule?
A: Its remaining activity at 10 µM is 108%.

Q: What about the remaining activity at 10 µM (AMPK(A2/B2/G1)) of the same molecule?
A: The remaining activity at 10 µM was 90.2%.

Q: And the remaining activity at 10 µM (NEK9)?
A: Its remaining activity at 10 µM is 100%.

Q: And the remaining activity at 10 µM (CDK2/cyclin O)?
A: The remaining activity at 10 µM was 103%.

Q: And the remaining activity at 10 µM (MARK3)?
A: Its remaining activity at 10 µM is 102%.

Q: What about the remaining activity at 10 µM (FGR) of the same molecule?
A: The remaining activity at 10 µM was 97.8%.

Q: And the remaining activity at 10 µM (PKCd)?
A: The remaining activity at 10 µM was 69.8%.

Q: And the remaining activity at 10 µM (CDK2/cyclin A)?
A: Its remaining activity at 10 µM is 88.3%.

Q: What about the remaining activity at 10 µM (JAK2) of the same molecule?
A: Its remaining activity at 10 µM is 108%.

Q: And the remaining activity at 10 µM (FER)?
A: Its remaining activity at 10 µM is 113%.

Q: What about the remaining activity at 10 µM (EIF2AK4) of the same molecule?
A: The remaining activity at 10 µM was 101%.

Q: What about the remaining activity at 10 µM (CLK4) of the same molecule?
A: The remaining activity at 10 µM was 128%.

Q: What about the remaining activity at 10 µM (TRKA) of the same molecule?
A: Its remaining activity at 10 µM is 46.4%.

Q: What about the remaining activity at 10 µM (PIM1) of the same molecule?
A: The remaining activity at 10 µM was 74%.

Q: What about the remaining activity at 10 µM (EGFR) of the same molecule?
A: Its remaining activity at 10 µM is 93.7%.

Q: And the remaining activity at 10 µM (SGK3/SGKL)?
A: Its remaining activity at 10 µM is 84.3%.

Q: And the remaining activity at 10 µM (CK1epsilon)?
A: Its remaining activity at 10 µM is 76.9%.

Q: And the remaining activity at 10 µM (CDK7/cyclin H)?
A: Its remaining activity at 10 µM is 102%.

Q: And the remaining activity at 10 µM (CK1G3)?
A: The remaining activity at 10 µM was 92.5%.

Q: What about the remaining activity at 10 µM (SIK3) of the same molecule?
A: Its remaining activity at 10 µM is 79.6%.

Q: And the remaining activity at 10 µM (ERK2/MAPK1)?
A: Its remaining activity at 10 µM is 91.9%.

Q: And the remaining activity at 10 µM (LRRK2)?
A: Its remaining activity at 10 µM is 99.2%.

Q: What about the remaining activity at 10 µM (AMPK(A1/B1/G3)) of the same molecule?
A: Its remaining activity at 10 µM is 92.7%.

Q: What about the remaining activity at 10 µM (MEKK6) of the same molecule?
A: Its remaining activity at 10 µM is 73.4%.

Q: What about the remaining activity at 10 µM (ALK5/TGFBR1) of the same molecule?
A: Its remaining activity at 10 µM is 103%.

Q: And the remaining activity at 10 µM (BTK)?
A: Its remaining activity at 10 µM is 76.8%.

Q: And the remaining activity at 10 µM (STK16)?
A: Its remaining activity at 10 µM is 109%.

Q: What about the remaining activity at 10 µM (mTOR/FRAP1) of the same molecule?
A: Its remaining activity at 10 µM is 92.1%.
